Patent US20260297070A1, “CYCLIC [COMPOUND LEFT OUT] WRN INHIBITORS” (Nimbus Wadjet, Inc., priority 2023, published 2026)

What follows are molecules tested against T1, human Werner helicase (WRN-BV08, Uniprot Q14191, amino acids 517-1235 with L1074F point mutation) (Homo sapiens, UniProt Q14191, L1074F) (assay: WRN (BV08) ADP-Glo Assay). Conditions: 0.15 nM WRN, 5 μM ATP, 0.1 nM DNA duplex, 15 min preincubation, 60 min at 25° C., pH 7.5, 1% DMSO; read-out: ADP-Glo_hWRN_IC50.
T1 construct: Uniprot Q14191, amino acids 517-1235 with L1074F point mutation; TEV-cleavable 8×His (C, cleaved yes); made in house; host or cells: Sf9 insect cells (baculovirus)
Format: biochemical
Method in brief: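 ADP-Glo luminescence read-out of ATP hydrolysis. Conditions: 0.15 nM WRN, 5 μM ATP, 0.1 nM DNA duplex, 1% DMSO, 60 min at 25 °C after 15 min compound preincubation. Max/min controls were DMSO and 20 μM NSC-617145; IC50 from four-parameter fit.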

T1 sequence (Q14191 with tags, fused parts or gaps L1074F limits assumed): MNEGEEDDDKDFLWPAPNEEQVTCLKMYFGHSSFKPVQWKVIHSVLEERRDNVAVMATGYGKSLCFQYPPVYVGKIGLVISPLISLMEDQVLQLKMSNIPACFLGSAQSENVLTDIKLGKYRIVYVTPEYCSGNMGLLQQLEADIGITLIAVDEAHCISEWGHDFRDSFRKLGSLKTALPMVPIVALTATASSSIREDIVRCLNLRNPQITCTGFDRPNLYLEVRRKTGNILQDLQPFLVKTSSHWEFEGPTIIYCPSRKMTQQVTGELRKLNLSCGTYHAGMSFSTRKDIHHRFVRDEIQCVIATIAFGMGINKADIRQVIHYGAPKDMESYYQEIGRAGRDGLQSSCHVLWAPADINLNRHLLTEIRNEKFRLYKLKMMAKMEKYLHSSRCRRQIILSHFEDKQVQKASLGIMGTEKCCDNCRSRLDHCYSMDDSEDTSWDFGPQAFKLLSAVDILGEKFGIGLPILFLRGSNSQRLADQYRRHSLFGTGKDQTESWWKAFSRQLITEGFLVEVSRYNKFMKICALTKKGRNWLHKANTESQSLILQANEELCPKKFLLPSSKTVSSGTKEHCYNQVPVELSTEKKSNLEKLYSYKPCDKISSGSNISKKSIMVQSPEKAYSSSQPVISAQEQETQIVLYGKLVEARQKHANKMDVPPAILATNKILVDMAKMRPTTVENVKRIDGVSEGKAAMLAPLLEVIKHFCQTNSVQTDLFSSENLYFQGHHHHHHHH

SMILES | IC50 [µM]
CC(C)(O)c1cc(CN(C(=O)Cn2cc(-c3ccc(C(F)F)cc3)cn2)C2C=CS(=O)(=O)C2)ccn1 (single isomer, unassigned) [I-639] | < 0.5
C=CCOC(C(=O)N(Cc1ccnc(C(C)(C)O)c1)[C@@H]1C=CS(=O)(=O)C1)c1ccc(-c2ccc(F)c(F)c2)cc1F (single isomer, unassigned) [I-641] | < 0.5
CC(C)(O)c1cc(CN(C(=O)Cc2ccc(OC(F)(F)C(F)(F)F)cc2)C2C=CS(=O)(=O)C2)ccn1 (single isomer, unassigned) [I-661] | < 0.5
CC(C)(O)c1cc(CN(C(=O)Cc2ccc(C3(C(F)(F)F)CC3)cc2)C2C=CS(=O)(=O)C2)ccn1 (single isomer, unassigned) [I-663] | 0.5 to 5
COC(C(=O)N(Cc1ccnc(C(C)(C)O)c1)C1C=CS(=O)(=O)C1)c1ccc(S(F)(F)(F)(F)F)cc1 (single isomer, unassigned) [I-664, (2R*)-N-[(3R**)-1,1-dioxo-2,3-dihydro-1lambda6-thiophen-3-yl]-N-{[2-(2-hydroxypropan-2-yl)pyridin-4-yl]methyl}-2-methoxy-2-[4-(pentafluoro-lambda6-sulfanyl)phenyl]acetamide] | < 0.5
COC(C(=O)N(Cc1ccnc(C(C)(C)O)c1)C1C=CS(=O)(=O)C1)c1ccc(S(F)(F)(F)(F)F)cc1 (single isomer, unassigned) [I-665, (2R*)-N-[(3R**)-1,1-dioxo-2,3-dihydro-1lambda6-thiophen-3-yl]-N-{[2-(2-hydroxypropan-2-yl)pyridin-4-yl]methyl}-2-methoxy-2-[4-(pentafluoro-lambda6-sulfanyl)phenyl]acetamide] | 10 to 50
CC(C)(O)c1cc(CN(C(=O)C(c2ccc(-c3ccc(F)c(F)c3)cc2F)n2cccn2)C2C=CS(=O)(=O)C2)ccn1 (single isomer, unassigned) [I-669, (2R*)-N-[(3R**)-1,1-dioxo-2,3-dihydro-1lambda6-thiophen-3-yl]-N-{[2-(2-hydroxypropan-2-yl)pyridin-4-yl]methyl}-2-(1H-pyrazol-1-yl)-2-{3,3′,4′-trifluoro-[1,1′-biphenyl]-4-yl}acetamide] | < 0.5
CC(C)(O)c1cc(CN(C(=O)C(c2ccc(-c3ccc(F)c(F)c3)cc2F)n2cccn2)C2C=CS(=O)(=O)C2)ccn1 (single isomer, unassigned) [I-670, (2R*)-N-[(3R**)-1,1-dioxo-2,3-dihydro-1lambda6-thiophen-3-yl]-N-{[2-(2-hydroxypropan-2-yl)pyridin-4-yl]methyl}-2-(1H-pyrazol-1-yl)-2-{3,3′,4′-trifluoro-[1,1′-biphenyl]-4-yl}acetamide] | 0.5 to 5
COc1cc(CN(C(=O)C(c2ccc(-c3ccc(F)c(F)c3)cc2F)n2cccn2)[C@@H]2C=CS(=O)(=O)C2)ccn1 (single isomer, unassigned) [I-671, (2R*)-N-[(3R)-1,1-dioxo-2,3-dihydro-1lambda6-thiophen-3-yl]-N-[(2-methoxypyridin-4-yl)methyl]-2-(1H-pyrazol-1-yl)-2-{3,3′,4′-trifluoro-[1,1′-biphenyl]-4-yl}acetamide] | < 0.5
COc1cc(CN(C(=O)C(c2ccc(-c3ccc(F)c(F)c3)cc2F)n2cccn2)[C@@H]2C=CS(=O)(=O)C2)ccn1 (single isomer, unassigned) [I-672, (2R*)-N-[(3R)-1,1-dioxo-2,3-dihydro-1lambda6-thiophen-3-yl]-N-[(2-methoxypyridin-4-yl)methyl]-2-(1H-pyrazol-1-yl)-2-{3,3′,4′-trifluoro-[1,1′-biphenyl]-4-yl}acetamide] | 5 to 10
CC(C)(O)c1cc(CN(C(=O)Cc2ccc(C(F)(F)C(F)(F)F)cc2)C2C=CS(=O)(=O)C2)ccn1 (single isomer, unassigned) [I-673] | < 0.5
CC(C)(O)c1cc(CN(C(=O)CCc2ccc(S(F)(F)(F)(F)F)cc2)C2C=CS(=O)(=O)C2)ccn1 (single isomer, unassigned) [I-674] | 5 to 10
COCC(C(=O)N(Cc1ccnc(C(C)(C)O)c1)[C@@H]1C=CS(=O)(=O)C1)c1ccc(S(F)(F)(F)(F)F)cc1 (single isomer, unassigned) [I-675] | 10 to 50
